Measured values from patent US20120277298A1, “FLAVANONES-CONTAINING FOOD COMPOSITIONS” (NESTEC S.A., priority 2009, published 2012).

Assay: Particle size distribution of hesperidin by laser diffraction (Malvern Mastersizer 2000)
Assay type: physicochemical
Description: The particle size distribution is observed using a microscopy optic LEICA DMR (mode Differential Interference Contrast and polarisation). The particle size distribution is measured by laser diffraction using a Malvern Mastersizer 2000.

In the case of `COc1ccc([C@@H]2CC(=O)c3c(O)cc(O[C@@H]4O[C@H](CO[C@@H]5O[C@@H](C)[C@H](O)[C@@H](O)[C@H]5O)[C@@H](O)[C@H](O)[C@H]4O)cc3O2)cc1O` [Commercially available hesperidin, hesperidin], the “% of cumulative distribution of hesperidin particle size below 20 microns” value (0.1% hesperidin in water, Example 1) is reported as 40% and the “% of cumulative distribution < 20 microns of hesperidin in water” value (hesperidin in water, Example 4) is reported as “Average 40%”.
